In patent US8063071B2 (GlaxoSmithKline, LLC, priority 2007, dated 2011):
Structures can show the parent of a compound that is named as a salt.

Tests used:
[1] = test system: human monocyte stimulated cytokine production (TNF-α); assay: Monocyte assay (LPS-stimulated TNF-α production); assay type: cell-based; conditions: for inhibition at 0.3 µM: read-out: inhibition at 300 nM in the monocyte assay; for IC50: 24 h, 200 ng/mL LPS, TNF-α by ELISA
Procedure, shortened: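 Human CD14+ monocytes were purified from blood and plated at 1×10^6 cells/mL in RPMI 1640 with 10% FBS. Compound was added 30 min before stimulation with 200 ng/mL LPS (0.1% DMSO final), followed by 24 hrs at 37 C. Supernatant TNF-α was measured by ELISA, and viability by trypan blue exclusion.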

[2] = molecular target: T1, Recombinant human IKKβ (residues 1-737) (Homo sapiens, UniProt O14920); assay: IKK2 assay (TR-FRET); assay type: biochemical; conditions: ATP 1 μM final, read-out: pIC50 against IKK2 (converted)
T1 construct: Recombinant human IKKβ (residues 1-737); GST (C); made in house
T1 sequence (O14920 1-737): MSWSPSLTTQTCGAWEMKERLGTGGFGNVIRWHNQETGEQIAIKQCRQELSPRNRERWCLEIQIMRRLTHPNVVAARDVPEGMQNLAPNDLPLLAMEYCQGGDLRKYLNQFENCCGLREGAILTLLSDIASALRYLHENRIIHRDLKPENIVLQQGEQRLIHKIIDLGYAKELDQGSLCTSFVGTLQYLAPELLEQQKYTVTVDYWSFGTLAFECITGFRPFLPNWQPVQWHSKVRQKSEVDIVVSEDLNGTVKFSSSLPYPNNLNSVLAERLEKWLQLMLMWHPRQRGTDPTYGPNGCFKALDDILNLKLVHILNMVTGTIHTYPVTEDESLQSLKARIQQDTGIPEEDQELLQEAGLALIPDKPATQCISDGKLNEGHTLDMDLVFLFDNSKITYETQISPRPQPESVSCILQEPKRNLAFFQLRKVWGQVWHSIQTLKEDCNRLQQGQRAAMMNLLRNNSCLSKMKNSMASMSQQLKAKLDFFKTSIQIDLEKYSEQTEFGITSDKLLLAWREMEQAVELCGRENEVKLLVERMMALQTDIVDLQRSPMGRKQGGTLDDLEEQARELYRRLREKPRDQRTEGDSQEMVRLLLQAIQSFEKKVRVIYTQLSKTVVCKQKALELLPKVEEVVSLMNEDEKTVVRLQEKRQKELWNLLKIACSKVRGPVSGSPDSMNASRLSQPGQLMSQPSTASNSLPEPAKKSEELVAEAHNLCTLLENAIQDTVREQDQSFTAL
Procedure, shortened: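 Baculovirus-expressed C-terminal GST-tagged IKKβ (0.5-5 nM final) in HEPES pH 7.4, MgCl2, CHAPS, DTT, BSA with 1.7% DMSO; 25 nM GST-IB substrate and 1 μM ATP, 15 min at room temperature. EDTA stop; phospho-Ser32/36 detected by Eu-antibody/APC-anti-GST TR-FRET, 665/620 nm ratio.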

Row | Structure (SMILES) | inhibition at 0.3 µM [1] | IC50 [2] | IC50 [1]
1 | CCS(=O)(=O)N1CCC(c2c[nH]c3c(C(N)=O)cc(-c4cncc(CN5CCOCC5)c4)cc23)CC1 [Example 176, 3-[1-(ethylsulfonyl)-4-piperidinyl]-5-[5-(4-morpholinylmethyl)-3-pyridinyl]-1H-indole-7-carboxamide] | 0 to 60% | ≤ 10 µM | 
2 | CCCCCN(C)Cc1cc(-c2cc(C(N)=O)c3[nH]cc(C4CCN(S(=O)(=O)CC)CC4)c3c2)cs1 [Example 72, 3-[1-(ethylsulfonyl)-4-piperidinyl]-5-(5-{[methyl(pentyl)amino]methyl}-3-thienyl)-1H-indole-7-carboxamide trifluoroacetate] |  | ≤ 10 µM | ≤ 1500 nM
3 | CCS(=O)(=O)N1CCC(c2c[nH]c3c(C(N)=O)cc(-c4csc(CN5CCC[C@H]5C)c4)cc23)CC1 [Example 218, 3-[1-(ethylsulfonyl)-4-piperidinyl]-5-(5-{[(2R)-2-methyl-1-pyrrolidinyl]methyl}-1′-3-thienyl)-1H-indole-7-carboxamide] |  | ≤ 10 µM | ≤ 1500 nM
4 | CCS(=O)(=O)N1CCC(c2c[nH]c3c(C(N)=O)cc(-c4cccc(CN5CC(C)OC(C)C5)c4)cc23)CC1 (stereo not shown) [Example 9, 5-{3-[(2,6-dimethyl-4-morpholinyl)methyl]phenyl}-3-[1-(ethylsulfonyl)-4-piperidinyl]-1H-indole-7-carboxamide] |  | ≤ 10 µM | ≤ 1500 nM
5 | CCS(=O)(=O)N1CCC(c2c[nH]c3c(C(N)=O)cc(-c4cccc(N)n4)cc23)CC1 [Example 163, 5-(6-amino-2-pyridinyl)-3-[1-(ethylsulfonyl)-4-piperidinyl]-1H-indole-7-carboxamide trifluoroacetate] |  | ≤ 10 µM | ≤ 1500 nM
6 | CCS(=O)(=O)N1CCC(c2c[nH]c3c(C(N)=O)cc(-c4cccc(CNC(=O)c5cccn5C)c4)cc23)CC1 [Example 365, 3-[1-(ethylsulfonyl)-4-piperidinyl]-5-[3-({[(1-methyl-1H-pyrrol-2-yl)carbonyl]amino}methyl)phenyl]-1H-indole-7-carboxamide] |  | ≤ 10 µM | > 1000 nM
7 | CCS(=O)(=O)N1CCC(c2c[nH]c3c(C(N)=O)cc(-c4ccc5c(c4)CNC5)cc23)CC1 [Example 418, 5-(2,3-dihydro-1H-isoindol-5-yl)-3-[1-(ethylsulfonyl)-4-piperidinyl]-1H-indole-7-carboxamide] |  | ≤ 10 µM | ≤ 1500 nM
8 | CCS(=O)(=O)N1CCC(c2c[nH]c3c(C(N)=O)cc(-c4coc(CNCC(C)C)c4)cc23)CC1 [Example 245, 3-[1-(ethylsulfonyl)-4-piperidinyl]-5-(5-{[(2-methylpropyl)amino]methyl}-3-furanyl)-1H-indole-7-carboxamide trifluoroacetate] |  | ≤ 10 µM | ≤ 1500 nM
9 | CCS(=O)(=O)N1CCC(c2c[nH]c3c(C(N)=O)cc(-c4nc(CN5CCCC5)cs4)cc23)CC1 [Example 251, 3-[1-(ethylsulfonyl)-4-piperidinyl]-5-[4-(1-pyrrolidinylmethyl)-1,3-thiazol-2-yl]-1H-indole-7-carboxamide trifluoroacetate] |  | ≤ 10 µM | ≤ 1500 nM
10 | CCS(=O)(=O)N1CCC(c2c[nH]c3c(C(N)=O)cc(-c4csc(CN(C)CC5CCN(C(C)C)C5)c4)cc23)CC1 (stereo not shown) [Example 79, 3-[1-(ethylsulfonyl)-4-piperidinyl]-5-{5-[(methyl{[1-(1-methylethyl)-3-pyrrolidinyl]methyl}amino)methyl]-3-thienyl}-1H-indole-7-carboxamide trifluoroacetate] | 0 to 60% | ≤ 10 µM | 
11 | CCC(C)CNCc1cc(F)cc(-c2cc(C(N)=O)c3[nH]cc(C4CCN(S(=O)(=O)CC)CC4)c3c2)c1 (stereo not shown) [Example 319, 3-[1-(ethylsulfonyl)-4-piperidinyl]-5-(3-fluoro-5-{[(2-methylbutyl)amino]methyl}phenyl)-1H-indole-7-carboxamide trifluoroacetate] |  | ≤ 10 µM | ≤ 1500 nM
12 | CCS(=O)(=O)N1CCC(c2c[nH]c3c(C(N)=O)cc(-c4ccc(N5CCCC5)nn4)cc23)CC1 [Example 302, 3-[1-(ethylsulfonyl)-4-piperidinyl]-5-[6-(1-pyrrolidinyl)-3-pyridazinyl]-1H-indole-7-carboxamide trifluoroacetate] |  | ≤ 10 µM | > 1000 nM
13 | CCS(=O)(=O)N1CCC(c2c[nH]c3c(C(N)=O)cc(-c4cccc(CNCCn5nc(C)cc5C)c4)cc23)CC1 [Example 350, 5-[3-({[2-(3,5-dimethyl-1H-pyrazol-1-yl)ethyl]amino}methyl)phenyl]-3-[1-(ethylsulfonyl)-4-piperidinyl]-1H-indole-7-carboxamide trifluoroacetate] | 0 to 60% | ≤ 10 µM | 
14 | CCS(=O)(=O)N1CCC(c2c[nH]c3c(C(N)=O)cc(-c4cc(CN(C)C)c5c(c4)OCC5)cc23)CC1 [Example 58, 5-{4-[(dimethylamino)methyl]-2,3-dihydro-1-benzofuran-6-yl}-3-[1-(ethylsulfonyl)-4-piperidinyl]-1H-indole-7-carboxamide] | 0 to 60% | ≤ 10 µM | 
15 | CCS(=O)(=O)N1CCC(c2c[nH]c3c(C(N)=O)cc(-c4ccc(CNC(C)COC)s4)cc23)CC1 (stereo not shown) [Example 61, 3-[1-(ethylsulfonyl)-4-piperidinyl]-5-[5-({[1-methyl-2-(methyloxy)ethyl]amino}methyl)-2-thienyl]-1H-indole-7-carboxamide] |  | ≤ 10 µM | ≤ 1500 nM
16 | CC(C)S(=O)(=O)N1CCC(c2c[nH]c3c(C(N)=O)cc(-c4csc(CN(C)C5CCCC5)c4)cc23)CC1 [Example 396, 5-(5-{[cyclopentyl(methyl)amino]methyl}-3-thienyl)-3-{1-[(1-methylethyl)sulfonyl]-4-piperidinyl}-1H-indole-7-carboxamide] |  | ≤ 10 µM | ≤ 1500 nM
17 | CCS(=O)(=O)N1CCC(c2c[nH]c3c(C(N)=O)cc(-c4cccc(CNC(=O)Cc5cccs5)c4)cc23)CC1 [Example 366, 3-[1-(ethylsulfonyl)-4-piperidinyl]-5-(3-{[(2-thienylacetyl)amino]methyl}phenyl)-1H-indole-7-carboxamide] |  | ≤ 10 µM | ≤ 1500 nM
18 | CCS(=O)(=O)N1CCC(c2c[nH]c3c(C(N)=O)cc(-c4ccc(CNC(=O)C5CCCC5)cc4)cc23)CC1 [Example 130, 5-(4-{[(cyclopentylcarbonyl)amino]methyl}phenyl)-3-[1-(ethylsulfonyl)-4-piperidinyl]-1H-indole-7-carboxamide] |  | ≤ 10 µM | ≤ 1500 nM
19 | CCS(=O)(=O)N1CCC(c2c[nH]c3c(C(N)=O)cc(-c4cccc(CNCC(C)C)c4)cc23)CC1 [Example 156, 3-[1-(ethylsulfonyl)-4-piperidinyl]-5-(3-{[(2-methylpropyl)amino]methyl}phenyl)-1H-indole-7-carboxamide] |  | ≤ 10 µM | ≤ 1500 nM
20 | CCS(=O)(=O)N1CCC(c2c[nH]c3c(C(N)=O)cc(-c4csc(CN5CCC[C@H]5C(F)(F)F)c4)cc23)CC1 [Example 393, 3-[1-(ethylsulfonyl)-4-piperidinyl]-5-(5-{[(2S)-2-(trifluoromethyl)-1-pyrrolidinyl]methyl}-3-thienyl)-1H-indole-7-carboxamide trifluoroacetate] |  | ≤ 10 µM | > 1000 nM
21 | CCS(=O)(=O)N1CCC(c2c[nH]c3c(C(N)=O)cc(-c4cc(CNC)ccc4F)cc23)CC1 [Example 333, 3-[1-(ethylsulfonyl)-4-piperidinyl]-5-{2-fluoro-5-[(methylamino)methyl]phenyl}-1H-indole-7-carboxamide trifluoroacetate] |  | ≤ 10 µM | ≤ 1500 nM
22 | CCS(=O)(=O)N1CCC(c2c[nH]c3c(C(N)=O)cc(-c4cccc(CNCC(F)(F)F)c4)cc23)CC1 [Example 38, 3-[1-(ethylsulfonyl)-4-piperidinyl]-5-(3-{[(2,2,2-trifluoroethyl)amino]methyl}phenyl)-1H-indole-7-carboxamide trifluoroacetate] |  | ≤ 10 µM | ≤ 1500 nM
23 | CCS(=O)(=O)N1CCC(c2c[nH]c3c(C(N)=O)cc(-c4ccc(CNCCCOC(C)C)s4)cc23)CC1 [Example 196, 3-[1-(ethylsulfonyl)-4-piperidinyl]-5-{5-[({3-[(1-methylethyl)oxy]propyl}amino)methyl]-2-thienyl}-1H-indole-7-carboxamide] |  | ≤ 10 µM | > 1000 nM
